Test results taken from patent publication US20230398233A1, “OCULAR ANTIBODY-DRUG CONJUGATES” (ADS THERAPEUTICS LLC, priority 2020, published 2023).

Experiment: Hydrolysis in water control (phosphate buffer)
Details: water control (method: phosphate buffer), 37° C., 0-72 h
Description: The 2 μL working solution of either the test compound or the control compound was added and mixed. The samples were incubated at 37° C. and the reaction was stopped by adding 200 μL of quenching solution at 0, 1, 4, 8, 12, 24, 48 and 72 and vortexed vigorously for −1 min. The solution was then centrifuged at 4,000 rpm at 4° C. for 15 min. The 100 μL of the supernatant was removed and mixed with 100 μL distilled water for LC-MS/MS analysis. The 10 μL standard curve working solution was spiked to 190 μL phosphate solution, The 200 μL of quenching solution was added to each standard curve wells. The blank sample was prepared by adding 2 μL of MeOH/DMSO solvent to replace the working solution. The double blank samples was prepared by adding 2 μL of MeOH/DMSO solvent to replace the working solution and by quenching the matrix with acetonitrile/MeOH.

In the case of mPEG-PrA-Dexa [Compound 2], the “T ½ in water control” value is reported as “No hydrolysis”.
